Laboratory results: ChEMBL document CHEMBL4808179 (Bioorg Med Chem Lett, 2021)
In brackets after ≈: the same amount, converted by molar mass.

Experiments:
[1] = system: Acinetobacter baumannii; assay: Antibacterial activity against Acinetobacter baumannii assessed as bacterial growth inhibition; format: functional
[2] = system: Enterococcus faecium; assay: Antibacterial activity against vancomycin resistant Enterococcus faecium Van B V(R) assessed as inhibition of bacterial growth; format: functional
[3] = system: Enterococcus faecium; assay: Antibacterial activity against vancomycin resistant Enterococcus faecium Van M HS-0847 assessed as inhibition of bacterial growth; format: functional
[4] = system: Staphylococcus aureus; assay: Antibacterial activity against vancomycin-intermediate Staphylococcus aureus Mu50 assessed as bacterial growth inhibition; format: functional
[5] = system: Staphylococcus aureus; assay: Antibacterial activity against methicillin-susceptible Staphylococcus aureus Newman assessed as bacterial growth inhibition; format: functional
[6] = system: L02; assay: Cytotoxicity against human L02 cells assessed as reduction in cell viability >= 12.5 uM; format: cell-based
[7] = system: Enterococcus faecium; assay: Antibacterial activity against vancomycin resistant Enterococcus faecium Van A HS-0649 assessed as inhibition of bacterial growth; format: functional
[8] = system: Escherichia coli; assay: Antibacterial activity against Escherichia coli AB1157 assessed as bacterial growth inhibition; format: functional
[9] = system: Staphylococcus aureus; assay: Antibacterial activity against methicillin-resistant Staphylococcus aureus HS-663 assessed as bacterial growth inhibition; format: functional
[10] = system: Enterococcus faecium; assay: Antibacterial activity against vancomycin resistant Enterococcus faecium Van M HS-08267 assessed as inhibition of bacterial growth; format: functional
[11] = system: Staphylococcus aureus; assay: Antibacterial activity against methicillin-resistant Staphylococcus aureus USA300 assessed as bacterial growth inhibition; format: functional
[12] = system: Enterococcus faecium; assay: Antibacterial activity against vancomycin resistant Enterococcus faecium Van A HS-06188 assessed as inhibition of bacterial growth; format: functional
[13] = system: Enterococcus faecium; assay: Potency index, ratio of Vancomycin MIC to test compound MIC for antibacterial activity against vancomycin resistant Enterococcus faecium Van M HS-0847 assessed as inhibition of bacterial growth; format: functional
[14] = system: Enterococcus faecium; assay: Potency index, ratio of Vancomycin MIC to test compound MIC for antibacterial activity against vancomycin resistant Enterococcus faecium Van A HS-06188 assessed as inhibition of bacterial growth; format: functional
[15] = system: Enterococcus faecium; assay: Potency index, ratio of Vancomycin MIC to test compound MIC for antibacterial activity against vancomycin resistant Enterococcus faecium Van B V(R) assessed as inhibition of bacterial growth; format: functional
[16] = system: Enterococcus faecium; assay: Potency index, ratio of Vancomycin MIC to test compound MIC for antibacterial activity against vancomycin resistant Enterococcus faecium Van M HS-08267 assessed as inhibition of bacterial growth; format: functional

CN[C@H](CC(C)C)C(=O)N[C@H]1C(=O)N[C@@H](CC(N)=O)C(=O)N[C@H]2C(=O)N[C@H]3C(=O)N[C@H](C(=O)N[C@H](C(=O)N/N=C/c4ccccc4)c4cc(O)cc(O)c4-c4cc3ccc4O)[C@H](O)c3ccc(c(Cl)c3)Oc3cc2cc(c3O[C@@H]2O[C@H](CO)[C@@H](O)[C@H](O)[C@H]2O[C@H]2C[C@](C)(N)[C@H](O)[C@H](C)O2)Oc2ccc(cc2Cl)[C@H]1O
MIC [1]: > 128 µg/mL | MIC [2]: 128 µg/mL (≈ 82.5 µM) | MIC [3]: 64 µg/mL (≈ 41.3 µM) | MIC [4]: 16 µg/mL (≈ 10.3 µM) | MIC [5]: 2 µg/mL (≈ 1.29 µM) | Activity [6]: Toxic | MIC [7]: 128 µg/mL (≈ 82.5 µM) | MIC [8]: > 128 µg/mL | MIC [9]: 0.5 µg/mL (≈ 0.322 µM) | MIC [10]: 64 µg/mL (≈ 41.3 µM) | MIC [11]: 2 µg/mL (≈ 1.29 µM) | MIC [12]: 128 µg/mL (≈ 82.5 µM)

CN[C@H](CC(C)C)C(=O)N[C@H]1C(=O)N[C@@H](CC(N)=O)C(=O)N[C@H]2C(=O)N[C@H]3C(=O)N[C@H](C(=O)N[C@H](C(=O)NNCc4ccccc4)c4cc(O)cc(O)c4-c4cc3ccc4O)[C@H](O)c3ccc(c(Cl)c3)Oc3cc2cc(c3O[C@@H]2O[C@H](CO)[C@@H](O)[C@H](O)[C@H]2O[C@H]2C[C@](C)(N)[C@H](O)[C@H](C)O2)Oc2ccc(cc2Cl)[C@H]1O
MIC [1]: > 128 µg/mL | MIC [2]: 128 µg/mL (≈ 82.4 µM) | MIC [3]: 64 µg/mL (≈ 41.2 µM) | MIC [4]: 4 µg/mL (≈ 2.57 µM) | MIC [5]: 1 µg/mL (≈ 0.644 µM) | MIC [7]: 128 µg/mL (≈ 82.4 µM) | MIC [8]: > 128 µg/mL | MIC [9]: 0.25 µg/mL (≈ 0.161 µM) | MIC [10]: 32 µg/mL (≈ 20.6 µM) | MIC [11]: 1 µg/mL (≈ 0.644 µM) | MIC [12]: 64 µg/mL (≈ 41.2 µM)

CN[C@H](CC(C)C)C(=O)N[C@H]1C(=O)N[C@@H](CC(N)=O)C(=O)N[C@H]2C(=O)N[C@H]3C(=O)N[C@H](C(=O)N[C@H](C(=O)NNCc4ccc(-c5ccc(C(F)(F)F)cc5)cc4)c4cc(O)cc(O)c4-c4cc3ccc4O)[C@H](O)c3ccc(c(Cl)c3)Oc3cc2cc(c3O[C@@H]2O[C@H](CO)[C@@H](O)[C@H](O)[C@H]2O[C@H]2C[C@](C)(N)[C@H](O)[C@H](C)O2)Oc2ccc(cc2Cl)[C@H]1O
Ratio [13]: 8 | MIC [1]: 64 µg/mL (≈ 37.7 µM) | MIC [2]: 4 µg/mL (≈ 2.36 µM) | MIC [3]: 4 µg/mL (≈ 2.36 µM) | MIC [4]: 2 µg/mL (≈ 1.18 µM) | MIC [5]: 1 µg/mL (≈ 0.589 µM) | Ratio [14]: 8 | MIC [7]: 8 µg/mL (≈ 4.71 µM) | Ratio [15]: 8 | MIC [8]: > 128 µg/mL | Ratio [16]: 8 | MIC [9]: 0.0625 µg/mL (≈ 0.0368 µM) | MIC [10]: 2 µg/mL (≈ 1.18 µM) | MIC [11]: 0.5 µg/mL (≈ 0.295 µM) | MIC [12]: 8 µg/mL (≈ 4.71 µM)

CN[C@H](CC(C)C)C(=O)N[C@H]1C(=O)N[C@@H](CC(N)=O)C(=O)N[C@H]2C(=O)N[C@H]3C(=O)N[C@H](C(=O)N[C@H](C(=O)O)c4cc(O)cc(O)c4-c4cc3ccc4O)[C@H](O)c3ccc(c(Cl)c3)Oc3cc2cc(c3O[C@@H]2O[C@H](CO)[C@@H](O)[C@H](O)[C@H]2O[C@H]2C[C@](C)(N)[C@H](O)[C@H](C)O2)Oc2ccc(cc2Cl)[C@H]1O [VANCOMYCIN]
MIC [3]: 64 µg/mL (≈ 44.2 µM) | MIC [4]: 8 µg/mL (≈ 5.52 µM) | MIC [9]: 0.25 µg/mL (≈ 0.173 µM)

CC[C@H](C)[C@H](NC(=O)[C@H](CCCCN)NC(=O)[C@@H](NC(=O)[C@H](CC(N)=O)NC(=O)[C@H](CS)NC(=O)[C@H]1NC(=O)[C@H]2NC(=O)[C@H](NC(=O)[C@@H]3NC(=O)[C@H](CC(N)=O)NC(=O)[C@H](NC(=O)[C@@H](CC(C)C)NC)[C@H](O)c4ccc(c(Cl)c4)Oc4cc3cc(c4O[C@@H]3O[C@H](CO)[C@@H](O)[C@H](O)[C@H]3O[C@H]3C[C@](C)(N)[C@H](O)[C@H](C)O3)Oc3ccc(cc3Cl)[C@H]2O)c2ccc(O)c(c2)-c2c(O)cc(O)cc21)[C@@H](C)CC)C(=O)N[C@@H](CO)C(=O)NCC(=O)N[C@@H](CCCCN)C(=O)N[C@@H](Cc1c[nH]c2ccccc12)C(=O)N[C@@H](CCCCN)C(=O)N[C@@H](C)C(=O)N[C@@H](CCC(N)=O)C(=O)N[C@@H](CCCCN)C(=O)N[C@@H](CCCNC(=N)N)C(=O)N[C@@H](Cc1ccccc1)C(=O)N[C@@H](CC(C)C)C(=O)O
MIC [1]: > 128 µg/mL | MIC [2]: 32 µg/mL (≈ 9.55 µM) | MIC [3]: 32 µg/mL (≈ 9.55 µM) | MIC [4]: 32 µg/mL (≈ 9.55 µM) | MIC [5]: 32 µg/mL (≈ 9.55 µM) | MIC [8]: > 128 µg/mL | MIC [9]: 16 µg/mL (≈ 4.77 µM) | MIC [10]: 32 µg/mL (≈ 9.55 µM) | MIC [11]: 32 µg/mL (≈ 9.55 µM) | MIC [12]: 64 µg/mL (≈ 19.1 µM)

CN[C@H](CC(C)C)C(=O)N[C@H]1C(=O)N[C@@H](CC(N)=O)C(=O)N[C@H]2C(=O)N[C@H]3C(=O)N[C@H](C(=O)N[C@H](C(=O)N[C@@H](CCCNC(=N)N)C(=O)O)c4cc(O)cc(O)c4-c4cc3ccc4O)[C@H](O)c3ccc(c(Cl)c3)Oc3cc2cc(c3O[C@@H]2O[C@H](CO)[C@@H](O)[C@H](O)[C@H]2O[C@H]2C[C@](C)(N)[C@H](O)[C@H](C)O2)Oc2ccc(cc2Cl)[C@H]1O
MIC [1]: > 128 µg/mL | MIC [2]: 64 µg/mL (≈ 39.9 µM) | MIC [3]: 128 µg/mL (≈ 79.7 µM) | MIC [4]: 64 µg/mL (≈ 39.9 µM) | MIC [5]: 8 µg/mL (≈ 4.98 µM) | Activity [6]: Toxic | MIC [7]: > 128 µg/mL | MIC [8]: > 128 µg/mL | MIC [9]: 0.5 µg/mL (≈ 0.311 µM) | MIC [10]: 128 µg/mL (≈ 79.7 µM) | MIC [11]: 4 µg/mL (≈ 2.49 µM) | MIC [12]: 128 µg/mL (≈ 79.7 µM)

CN[C@H](CC(C)C)C(=O)N[C@H]1C(=O)N[C@@H](CC(N)=O)C(=O)N[C@H]2C(=O)N[C@H]3C(=O)N[C@H](C(=O)N[C@H](C(=O)N[C@@H](CCCNC(=N)N)C(N)=O)c4cc(O)cc(O)c4-c4cc3ccc4O)[C@H](O)c3ccc(c(Cl)c3)Oc3cc2cc(c3O[C@@H]2O[C@H](CO)[C@@H](O)[C@H](O)[C@H]2O[C@H]2C[C@](C)(N)[C@H](O)[C@H](C)O2)Oc2ccc(cc2Cl)[C@H]1O
MIC [1]: > 128 µg/mL | MIC [2]: 64 µg/mL (≈ 39.9 µM) | MIC [3]: 64 µg/mL (≈ 39.9 µM) | MIC [4]: 2 µg/mL (≈ 1.25 µM) | MIC [5]: 2 µg/mL (≈ 1.25 µM) | Activity [6]: Toxic | MIC [7]: 64 µg/mL (≈ 39.9 µM) | MIC [8]: 32 µg/mL (≈ 19.9 µM) | MIC [9]: 0.25 µg/mL (≈ 0.156 µM) | MIC [10]: 64 µg/mL (≈ 39.9 µM) | MIC [12]: 64 µg/mL (≈ 39.9 µM)

CN[C@H](CC(C)C)C(=O)N[C@H]1C(=O)N[C@@H](CC(N)=O)C(=O)N[C@H]2C(=O)N[C@H]3C(=O)N[C@H](C(=O)N[C@H](C(=O)N[C@@H](CS)C(=O)N[C@@H](CCCNC(=N)N)C(=O)N[C@@H](CCCCN)C(=O)N[C@H](C(=O)N[C@@H](CCCNC(=N)N)C(=O)NCC(=O)N4CCC[C@H]4C(=O)N4CCC[C@H]4C(=O)O)C(C)C)c4cc(O)cc(O)c4-c4cc3ccc4O)[C@H](O)c3ccc(c(Cl)c3)Oc3cc2cc(c3O[C@@H]2O[C@H](CO)[C@@H](O)[C@H](O)[C@H]2O[C@H]2C[C@](C)(N)[C@H](O)[C@H](C)O2)Oc2ccc(cc2Cl)[C@H]1O
MIC [1]: > 128 µg/mL | MIC [2]: 16 µg/mL (≈ 6.83 µM) | MIC [3]: 32 µg/mL (≈ 13.7 µM) | MIC [4]: 64 µg/mL (≈ 27.3 µM) | MIC [5]: 32 µg/mL (≈ 13.7 µM) | MIC [8]: > 128 µg/mL | MIC [9]: 16 µg/mL (≈ 6.83 µM) | MIC [10]: 32 µg/mL (≈ 13.7 µM) | MIC [11]: 16 µg/mL (≈ 6.83 µM) | MIC [12]: 16 µg/mL (≈ 6.83 µM)

CN[C@H](CC(C)C)C(=O)N[C@H]1C(=O)N[C@@H](CC(N)=O)C(=O)N[C@H]2C(=O)N[C@H]3C(=O)N[C@H](C(=O)N[C@H](C(=O)N/N=C/c4ccc(-c5ccc(C(F)(F)F)cc5)cc4)c4cc(O)cc(O)c4-c4cc3ccc4O)[C@H](O)c3ccc(c(Cl)c3)Oc3cc2cc(c3O[C@@H]2O[C@H](CO)[C@@H](O)[C@H](O)[C@H]2O[C@H]2C[C@](C)(N)[C@H](O)[C@H](C)O2)Oc2ccc(cc2Cl)[C@H]1O
Ratio [13]: 8 | MIC [1]: > 128 µg/mL | MIC [2]: 1 µg/mL (≈ 0.59 µM) | MIC [3]: 4 µg/mL (≈ 2.36 µM) | MIC [4]: 2 µg/mL (≈ 1.18 µM) | MIC [5]: 1 µg/mL (≈ 0.59 µM) | Ratio [14]: 8 | MIC [7]: 4 µg/mL (≈ 2.36 µM) | Ratio [15]: 8 | MIC [8]: > 128 µg/mL | Ratio [16]: 8 | MIC [9]: 0.0625 µg/mL (≈ 0.0369 µM) | MIC [10]: 2 µg/mL (≈ 1.18 µM) | MIC [11]: 0.5 µg/mL (≈ 0.295 µM) | MIC [12]: 4 µg/mL (≈ 2.36 µM)
